In patent US5767236A, “Linear therapeutic peptides” (Biomeasure, Inc., priority 1995, dated 1998):
Non-standard residues stand in square brackets, D forms with d. Residues, ends and D or L forms follow the SMILES beside them. *: point of attachment. Propionyl = CCC(=O)*

Columns and labels:
GRP receptor = target: T1, GRP receptor (Rattus norvegicus, UniProt P52500); experiment: Assay on binding to GRP receptor ([125I-Tyr4]bombesin displacement, AR42J cell membranes); conditions: rat AR42J cell membranes, [125I-Tyr4]bombesin, 30 min, 4° C.; read-out: IC50, affinity binding for the GRP receptors
T1 construct: endogenous in cells; host or cells: rat AR42J pancreatic acinar cells (membrane preparation)
T1 sequence (P52500 whole entry): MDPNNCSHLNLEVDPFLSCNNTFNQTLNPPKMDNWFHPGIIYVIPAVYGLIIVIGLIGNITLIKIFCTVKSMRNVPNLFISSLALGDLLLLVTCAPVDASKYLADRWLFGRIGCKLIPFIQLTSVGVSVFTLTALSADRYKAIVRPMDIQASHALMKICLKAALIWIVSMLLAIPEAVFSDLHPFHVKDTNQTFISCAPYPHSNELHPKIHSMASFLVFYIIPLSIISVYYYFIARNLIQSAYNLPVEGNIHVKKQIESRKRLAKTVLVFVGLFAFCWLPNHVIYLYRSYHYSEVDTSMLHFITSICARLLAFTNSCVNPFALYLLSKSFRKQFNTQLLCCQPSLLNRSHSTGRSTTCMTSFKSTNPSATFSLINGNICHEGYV
Protocol: Rat AR42J pancreatic acinar cells were cultured in Dulbecco's modified Eagle's medium without antibiotics and supplemented with 10% (vol/vol) fetal calf serum. The incubation atmosphere consisted of 10% C)2 -90% humidified air at 37° C.
Membranes for the bombesin receptor binding assay were obtained by homogenizing AR42J cells (Polytron, setting 6, 15 sec) in ice-cold 50 mM Tris-HCl (Buffer A) and centrifuging twice at 39,000× g (10 min), with an intermediate resuspension in fresh buffer. The final pellets were resuspended in 50 mM Tris-HCl, containing 0.1 mg/ml bacitracin, and 0.1% BSA (Buffer B), and held on ice for the receptor binding assay.
For assay, aliquots (0.4 ml) were incubated with 0.05 ml [^125 I-Tyr^4 ] bombesin (~2200 Ci/mmol, New England Nuclear) and Buffer B, with and without 0.05 ml of unlabeled competing analogs. After a 30 min incubation (4° C.), the bound [^125 I-Tyr^4 ] bombesin was separated from the free by rapid filtration through GF/B filters which had been previously soaked in 0.1% polyethyleneimine. The filters were then washed three times with 5 ml aliquots of ice-cold Buffer A. Specific binding was defined as the total [^125 I-Tyr^4 ] bombesin bound minus that bound in the presence of 1 μM unlabeled bombesin.

[1] = test system: AT-3 carcinoma of the rat prostate; experiment: Subcutaneous tumor assay, AT-3 prostate tumor; assay type: in vivo; conditions: AT-3, s.c. xenografts in athymic nudes, 100 μg/injection, b.i.d.
Protocol: (§1) Treatment of tumors induced by subcutaneous implantation of in vitro maintained cell cultures was initiated only when well established as progressively growing tumors in the first transplant generation from in vitro culture. "No takes" were culled and animals with tumors of similar size were carefully randomized into control and test groups.
(§2) Analogues were tested against all tumor systems except SCLC's and NSCLC's at a screening dose of 100 μg/injection, s.c., in the flank opposite from the tumor, b.i.d. Lung tumors (SCLC and NSCLC) were tested at 250 μg/injection, s.c., b.i.d. Rat breast tumors were tested at 400 Ag/injection, s.c., b.i.d., an equivalent extrapolation from the mouse dose.
(§3) In vivo transplantation established tumor systems were implanted s.c. as a 1-2 mm^3 mince of tumor tissue. Treatment was initiated within 2 to 3 days of implantation.
(§4) Tumor weights (mgs) from tumor dimensions (mm×mm) were calculated following the formula of a prolate ellipsoid: […]
(§5) L×W^2 /2, where L is the longer of the two measurements.
(§6) Tumor measurements were determined with a vernier caliper three times/week.
AT-3 Androgen resistant, undifferentiated fast growing
carcinoma of the rat prostate. A subline of R-3327-H.
Tested as subcutaneous xenografts in athymic nudes.

[2] = test system: 11095 squamous cell carcinoma of the rat prostate; experiment: Subcutaneous tumor assay, 11095 prostate tumor; assay type: in vivo; conditions: 11095, s.c. xenografts in athymic nudes, 100 μg/injection, b.i.d.
Protocol: as §1, §2, §3, §4, §5, §6
11095 Androgen insensitive, squamous cell carcinoma of the rat
prostate. Originating and transplantable in Fischer 344
strain rats. Tested as subcutaneous xenografts in […]

[3] = test system: 2PR121D(1)/R adenocarcinoma of the rat prostate; experiment: Subcutaneous tumor assay, 2PR121D(1)/R prostate tumor; assay type: in vivo; conditions: s.c. tumors in Nb strain rats, 100 μg/injection, b.i.d.
Protocol: as §1, §2, §3, §4, §5, §6
Androgen resistant, poorly
differentiated adenocarcinoma
of the rate prostate derived as an androgen resistant
subline of 2PR121D(1)/S. Tested as subcutaneous tumors

[4] = test system: MX-1 human mammary carcinoma; experiment: Subcutaneous tumor assay, MX-1 breast tumor; assay type: in vivo; conditions: MX-1, s.c. xenografts in athymic nude females, 100 μg/injection, b.i.d.
Protocol: as §1, §2, §3, §4, §5, §6
MX-1 Estrogen independent, human poorly
carcinoma. Tested as subcutaneous xenografts in athymic

MT/W9Q-S breast tumor = experiment: Subcutaneous tumor assay, MT/W9Q-S breast tumor; assay type: in vivo; conditions: rat breast tumors tested at 400 Ag/injection, s.c., b.i.d.
Protocol: as §1, §2, §3, §4, §5, §6

[5] = test system: 13762NF rat mammary tumor; experiment: Subcutaneous tumor assay, 13762NF breast tumor; assay type: in vivo; conditions: 13762NF in Fischer 344 strain rats; rat breast tumors tested at 400 Ag/injection, s.c., b.i.d.
Protocol: as §1, §2, §3, §4, §5, §6
13762NF Estrogen insensitive rat mammary tumor transplantable in
Fischer 344 strain rats.

CX-1 colon tumor = experiment: Subcutaneous tumor assay, CX-1 colon tumor; assay type: in vivo, human; conditions: 100 μg/injection, s.c., b.i.d.
Protocol: as §1, §2, §3, §4, §5, §6
CZ-1 Mucinous adenocarcinoma, human, tested as xenografts in […]

CX-5 colon tumor = experiment: Subcutaneous tumor assay, CX-5 colon tumor; assay type: in vivo, human; conditions: 100 μg/injection, s.c., b.i.d.
Protocol: as §1, §2, §3, §4, §5, §6
GOB-G Moderately differentiated adenocarcinoma, human, tested
as xenografts in athymic nude females.

M5123 hepatoma = experiment: Subcutaneous tumor assay, M5123 hepatoma; assay type: in vivo, rat; conditions: 100 μg/injection, s.c., b.i.d.
Protocol: as §1, §2, §3, §4, §5, §6

M7777 hepatoma = experiment: Subcutaneous tumor assay, M7777 hepatoma; assay type: in vivo, rat; conditions: 100 μg/injection, s.c., b.i.d.
Protocol: as §1, §2, §3, §4, §5, §6

M7806 hepatoma = experiment: Subcutaneous tumor assay, M7806 hepatoma; assay type: in vivo, rat; conditions: 100 μg/injection, s.c., b.i.d.
Protocol: as §1, §2, §3, §4, §5, §6

[6] = test system: NCI-H345 human small cell lung cancer (SCLC); experiment: Subcutaneous tumor assay, NCI-H345 lung tumor; assay type: in vivo
Protocol: as §1, §2, §3, §4, §5, §6
An in vitro maintained human small cell lung cancer
(SCLC) graciously prided by Dr. A. Gazdar. Cell
agglomerates produce slow, progressively growing tumors
in approximately 80% of athymic nude mice
when implanted subcutaneously. Tested as
well established subcutaneous
xenografts in athymic nudes.

[7] = test system: A-549 human non-small cell lung cancer (NSCLC); experiment: Subcutaneous tumor assay, A-549 lung tumor; assay type: in vivo
Protocol: as §1, §2, §3, §4, §5, §6
A-549 An in vitro maintained human non-small cell lung cancer
(NSCLC) obtained from the American Type Culture
Collection repository. Implanted s.c. as a cell
suspension and resultant tumors treated when tumors were […]

[8] = test system: different human and animal tumors; experiment: Assay on inhibition of tumor growth, overall statement; assay type: in vivo; conditions: summary of Table 3; inhibitory activity when Percent Test/Control < 80% T/C
Protocol: as §1, §2, §3, §4, §5, §6

Compound	IC50 (GRP receptor) [nM]	Percent Test/Control (tumor weight) (CX-5 colon tumor) [%]	Percent Test/Control (tumor weight) (M5123 hepatoma) [%]	Percent Test/Control (tumor weight) (M7777 hepatoma) [%]	inhibition of the growth of different human and animal tumors [8]	other results
CC(C)C[C@H](NC(=O)[C@H](CC(C)C)NC(=O)[C@H](Cc1c[nH]cn1)NC(=O)CNC(=O)[C@@H](NC(=O)[C@H](C)NC(=O)[C@H](Cc1c[nH]c2ccccc12)NC(=O)[C@H](CCC(N)=O)NC(=O)[C@H](N)Cc1ccccc1)C(C)C)C(N)=O [BIM-26187, H-D-Phe-Gln-Trp-Ala-Val-Gly-His-Leu-Leu-NH2]	5	83	62	67	capable of inhibiting the growth	Percent Test/Control (tumor weight) [1]: 36%; Percent Test/Control (tumor weight) [2]: 50%; Percent Test/Control (tumor weight) [3]: 70%; Percent Test/Control (tumor weight) [4]: 78%; Percent Test/Control (tumor weight) (MT/W9Q-S breast tumor): 45%; Percent Test/Control (tumor weight) [5]: 70%; Percent Test/Control (tumor weight) (CX-1 colon tumor): 31%; Percent Test/Control (tumor weight) (M7806 hepatoma): 83%; Percent Test/Control (tumor weight) ([6]; NCI-H345 SCLC, s.c. xenografts in athymic nudes, 250 μg/injection, s.c., b.i.d.): 66%; Percent Test/Control (tumor weight) ([7]; A-549 NSCLC, implanted s.c., 250 μg/injection, s.c., b.i.d.): 63%; growth inhibitory effect on non-small cell lung carcinoma (NSCLC) ([7]; FIG. 2): capable of inhibiting
CSCC[C@H](NC(=O)[C@H](CC(C)C)NC(=O)[C@H](Cc1c[nH]cn1)NC(=O)CNC(=O)[C@@H](NC(=O)[C@H](C)NC(=O)[C@H](Cc1c[nH]c2ccccc12)NC(=O)[C@H](CCC(N)=O)NC(=O)[C@H](N)Cc1ccccc1)C(C)C)C(N)=O [BIM-26218, H-D-Phe-Gln-Trp-Ala-Val-Gly-His-Leu-Met-NH2]	–	–	70	–	capable of inhibiting the growth	–
CCCC[C@H](NC(=O)[C@H](Cc1ccccc1)NC(=O)[C@H](Cc1c[nH]cn1)NC(=O)CNC(=O)[C@@H](NC(=O)[C@H](C)NC(=O)[C@H](Cc1c[nH]c2ccccc12)NC(=O)[C@H](CCC(N)=O)NC(=O)[C@H](N)Cc1ccccc1)C(C)C)C(N)=O [BIM-26224, H-D-Phe-Gln-Trp-Ala-Val-Gly-His-Phe-Nle-NH2]	0.7	–	–	–	–	growth inhibitory effect on small cell lung carcinoma (SCLC) ([6]; FIG. 1): capable of inhibiting
CC(=O)N[C@@H](Cc1c[nH]cn1)C(=O)N[C@@H](Cc1c[nH]c2ccccc12)C(=O)N[C@@H](C)C(=O)N[C@H](C(=O)NCC(=O)N[C@@H](Cc1c[nH]cn1)C(=O)N[C@@H](CC(C)C)C(=O)N[C@@H](CC(C)C)C(N)=O)C(C)C [BIM-26225, Acetyl-His-Trp-Ala-Val-Gly-His-Leu-Leu-NH2] (Ac-HWAVGHLL-NH2)	–	–	–	52	capable of inhibiting the growth	–
CCC(=O)N[C@@H](Cc1c[nH]cn1)C(=O)N[C@@H](Cc1c[nH]c2ccccc12)C(=O)N[C@@H](C)C(=O)N[C@H](C(=O)N[C@H](C)C(=O)N[C@@H](Cc1c[nH]cn1)C(=O)N[C@@H](CC(C)C)C(=O)N[C@@H](CC(C)C)C(N)=O)C(C)C [BIM-26247, Propionyl-His-Trp-Ala-Val-D-Ala-His-Leu-Leu-NH2] (Propionyl-HWAV[dA]HLL-NH2)	–	54	–	–	capable of inhibiting the growth	–
CSCC[C@H](NC(=O)[C@H](Cc1ccccc1)NC(=O)[C@H](Cc1c[nH]cn1)NC(=O)CNC(=O)[C@@H](NC(=O)[C@H](C)NC(=O)[C@H](Cc1c[nH]c2ccccc12)NC(=O)[C@H](CCC(N)=O)NC(=O)[C@H](N)Cc1ccccc1)C(C)C)C(N)=O [BIM-26269, H--D-Phe--Gln--Trp--Ala--Val--Gly--His--Phe--Met--NH2]	1.4	–	–	–	–	–
